In this test the target is human tryptase. Nature of the test: Inhibition of human tryptase (apparent dissociation constant, tos-Gly-Pro-Arg-pNA cleavage). The following applies: in the presence of substrate; heparin 0.1–50 μg/ml; equilibrium conditions; read-out: Kiapp (apparent dissociation constant of tryptase-inhibitor complex). The format is biochemical. From the text: The documented pathophysiological effects of mast cell tryptase are caused directly by the enzymatic activity of the protease. Accordingly, they are reduced or blocked by inhibitors which inhibit the enzymatic activity of the tryptase. A suitable measure for the affinity of a reversible inhibitor to the target protease is the equilibrium dissociation constant Ki of the enzyme-inhibitor complex. This Ki value can be determined via the effect of the inhibitor on the tryptase-induced cleavage of a chromogenic peptide-p-nitroanilide substrate or a fluorogenic peptide-aminomethylcoumarin substrate.
The dissociation constants for the tryptase-inhibitor complexes are determined under equilibrium conditions in accordance with the general proposals of Bieth (Bieth J G, Pathophysiological interpretation of kinetic constants of protease inhibitors, Bull. Europ. Physiopath. Resp. 16:183–195, 1980) and the methods of Sommerhoff et al. (Sommerhoff C P et al., A Kazal-type inhibitor of human mast cell tryptase: isolation from the medical leech Hirudo medicinalis, characterization, and sequence analysis, Biol. Chem. Hoppe-Seyler 375: 685–694, 1994).
Human tryptase is isolated from lung tissue or prepared recombinantly; the specific activity of the protease, determined by titration, is usually greater than 85% of the theoretical value. In the presence of heparin (0.1–50 μg/ml) for stabilizing the protease, constant amounts of the tryptase are incubated with increasing amounts of the inhibitors. After an equilibrium between the reaction partners has formed, the remaining enzyme activity after addition of the peptide-p-nitroanilide substrate tos-Gly-Pro-Arg-pNA is determined and the cleavage of the latter is monitored at 405 nm for 3 min. Alternatively, the remaining enzymatic activity can also be determined using fluorogenic substrates. The apparent dissociation constants Kiapp (i.e. in the presence of substrate) are subsequently determined by adapting the enzyme rates to the general equation for reversible inhibitors (Morrison J F, Kinetics of the reversible inhibition of enzyme-catalysed reactions by tight-binding inhibitors, Biochim. Biophys. Acta 185, 269–286, 1969) using non-linear regression: V1/V0=1−{Et+It+Kiapp−[(Et+It+Kiapp)^2−4EtIt]^1/2}/2Et
V1 and V0 are the rates in the presence and absence, respectively, of the inhibitor, and Et and It are the tryptase and inhibitor concentrations, respectively.
The apparent dissociation constants determined for the compounds according to the invention are shown in Table A below, where the numbers of the compounds correspond to the numbers of the compounds in the examples.

The record followed here is patent US7101911B2, “Tryptase inhibitors” (Altana Pharma AG, priority 2001, dated 2006).

Molecules are shown by their SMILES. Structures can show the parent of a compound that is named as a salt.

On to `NCc1ccc(CNC(=O)OCC#Cc2cc(C#CCOC(=O)NCc3ccc(CN)cc3)cc(CO)c2)cc1` [Compound 1, 3,5-Bis-[3-(4-aminomethylbenzylaminocarbonyloxy)prop-1-ynyl]-1-hydroxymethyl-benzene dihydrochloride], for which the Ki turned out to be 14 nM. Consider `COC(=O)c1cc(C#CCOC(=O)NCc2cccc(CN)c2)cc(C#CCOC(=O)NCc2cccc(CN)c2)c1` [Compound 2, Methyl 3,5-bis-[3-(3-aminomethylbenzylaminocarbonyloxy)prop-1-ynyl]benzoate dihydrochloride], for which the Ki worked out at 1.6 nM. To `NCc1cccc(CNC(=O)OCC#Cc2cc(C#CCOC(=O)NCc3cccc(CN)c3)cc(C(=O)O)c2)c1` [Compound 3, 3,5-Bis-[3-(3-aminomethylbenzylaminocarbonyloxy)prop-1-ynyl]benzoic acid dihydrochloride] belongs 40 nM; to `COC(=O)c1cc(C#CCOC(=O)NCc2ccc(CN)cc2)cc(C#CCOC(=O)NCc2ccc(CN)cc2)c1` [Compound 4, Methyl 3,5-bis-[3-(4-aminomethylbenzylaminocarbonyloxy)prop-1-ynyl]benzoate dihydrochloride], 58 nM. The value for `NCc1ccc(CNC(=O)OCC#Cc2cc(C#CCOC(=O)NCc3ccc(CN)cc3)cc(C(=O)O)c2)cc1` [Compound 5, 3,5-Bis-[3-(4-aminomethylbenzylaminocarbonyloxy)prop-1-ynyl]benzoic acid dihydrochloride] was 250 nM; that for `COC(=O)c1cc(C#CCOC(=O)NCc2cccc(CN)c2)ccc1C#CCOC(=O)NCc1cccc(CN)c1` [Compound 6, Methyl 2,5-bis-[3-(3-aminomethylbenzylaminocarbonyloxy)prop-1-ynyl]benzoate dihydrochloride] was 0.3 nM. To `NCc1cccc(CNC(=O)OCC#Cc2ccc(C#CCOC(=O)NCc3cccc(CN)c3)c(C(=O)O)c2)c1` [Compound 7, 2,5-Bis-[3-(3-aminomethylbenzylaminocarbonyloxy)prop-1-ynyl]benzoic acid dihydrochloride] belongs 8.6 nM; to `COC(=O)c1cc(C#CCOC(=O)NCc2cccc(CN)c2)c(C(=O)OC)cc1C#CCOC(=O)NCc1cccc(CN)c1` [Compound 8, Dimethyl 2,5-bis-[3-(3-aminomethylbenzylaminocarbonyloxy)prop-1-ynyl]terephthalate dihydrochloride], 2.3 nM; to `CCOC(=O)c1cc(OCC#CCOC(=O)NCc2cccc(CN)c2)c(C(=O)OCC)cc1OCC#CCOC(=O)NCc1cccc(CN)c1` [Compound 9, Diethyl 2,5-bis-[4-(3-aminomethylbenzylaminocarbonyloxy)but-2-ynyl-1-oxy]terephthalate dihydrochloride], 6 nM.
